Measurements reported in article PMC10688702, “The indole motif is essential for the antitrypanosomal activity of N^5-substituted paullones” (PLOS ONE, 2023).
Where a name gives a salt, the structure may show the parent alone.

Tests used:
[1] = biological target: trypanothione synthetase of L. infantum (LiTryS) (Leishmania infantum, UniProt A4I2Z3); experiment: TryS activity screening assay on recombinant LiTryS; format: biochemical; conditions: read-out: LiTryS activity [% at 30 μM]
Description: TryS from different trypanosomatids was produced in recombinant form with an N-terminal His-tag. The constructs pET-15b TbTryS and pET-28c(+)LiTryS were used to express TryS of T. b. brucei 427 (MITat1.4, GenBank accession protein id CAC87573.1), and L. infantum JPCM5 (GenBank accession protein id CAM69145.1). E. coli strain BL21 (DE3) served as the expression host. For TbTryS, the cells were cultured in a medium based in Terrific Broth and induction with isopropyl 1-thio-β-D-galactopyranoside (IPTG), while for LiTryS, the cells were cultured in ZYM-5052 auto-induction medium. For a detailed description of the expression, see Benítez et al.. The purification was performed by immobilised metal affinity chromatography in a HisTrap Fast Flow column (GE Healthcare) followed by size exclusion chromatography. […] The fractions containing recombinant TryS with ≥95% purity were pooled and concentrated to >10 mg protein/mL using a 10 kDa cut-off Amicon filter (Millipore, Billerica, CA). Glycerol was added at a final concentration of 40% (v/v). The samples were stored at -80°C. Enzyme purity and activity were assessed by SDS-PAGE (12%) under reducing conditions and by the end-point TryS assay (see TryS activity screening assay), respectively. Protein concentration was determined using the bicinchoninic acid assay with bovine serum albumin as standard. The protocols yielded 25–30 mg TbTryS or LiTryS per litre of culture medium and homogeneous specific activity.
For all TryS, ATP was used at 150 μM because of a high background signal at higher concentrations and Spd fixed at 2 mM, in agreement with the intracellular levels calculated from data reported in the literature for trypanosomatids. GSH was adjusted to 0.05 and 0.25 mM for TbTryS and LiTryS, respectively, to avoid substrate inhibition or to approach physiological concentrations. […] Microtiter plate wells were loaded with 5 μL of the test compound, DMSO (reaction control) or a TryS specific inhibitor (inhibition control) and 40 μL of MM solution. The reactions were then started by adding 5 μL of TryS (2 and 3*10^−5 μmol*min^-1*mL^-1 for LiTryS and TbTryS, respectively) and stopped after 15 min with 200 μL BIOMOL® GREEN reagent (Enzo Life Sciences). The compounds used as inhibition control were added at concentrations that inhibited 50% TryS activity: 30 μM and 150 nM MOL2008 for TbTryS and LiTryS, respectively. Blanks were prepared for each condition by adding 5 μL of screening reaction buffer instead of the enzyme. The TryS activity is calculated as follows: TrySactivity%=A650nmCi-A650nmCiB/A650nmE-A650nmEB*100%
A650 nm Ci is the mean absorbance at 650 nm for the reaction test with compound I (Ci), A650 nm CiB is the mean absorbance at 650 nm for the blank control with compound I (CiB), A650 nm E is the mean absorbance at 650 nm for the reaction control with DMSO (E) and A650 nm EB is the mean absorbance at 650 nm for the blank control with DMSO (EB). The errors were expressed as 2 standard deviations (SD), SD estimated as σ^n−1.

[2] = system: L. infantum amastigotes (intracellular, in J774.A1 macrophages); experiment: Viability assay for L. infantum amastigotes; format: cell-based; conditions: Leishmania infantum, J774.A1, 24 h, read-out: L. infantum amastigote viability [% at 20 μM]
Description: Viability assay for L. infantum amastigotes. L. infantum promastigotes from the reference strain MHOM/MA/67/ITMAP263, stably transfected with a vector encoding a red-shifted luciferase gene (RE9HLUC; Branchini et al.; Benítez et al.) were grown in fresh complete RPMI medium (RPMI basic medium containing 25 mM HEPES, 10% v/v iFBS, 100 U/mL penicillin, 100 μg/mL streptomycin and 15 μg/mL hygromycin B) at 28°C in sealed culture flasks. Metacyclic promastigotes were obtained by a negative selection procedure using peanut agglutinin and used to infect murine macrophages (cell line J774.A1) at a 1:10 ratio for macrophages (5×10^6 cells): parasites (5×10^7 cells). 200 μL of this suspension was added per well to a 96-well culture microplate, which was then incubated at 37°C for 24 h in a 5% CO2/95% air atmosphere incubator. […] The culture microplate was incubated in the CO2 incubator for additional 24 h. Next, the supernatant was removed and the microplate wells were washed with pre-warmed PBS (200 μL). […] All conditions were tested in triplicates and the percentage amastigote viability was calculated as described for infective T. b. brucei, with errors expressed as one SD, estimated as σ^n-1.
A macrophage cell density correction factor based on the incorporation of propidium iodide was calculated and applied to normalise amastigote viability related to host cell density in the well. For a detailed explanation of the protocol, see Benítez et al..

trypanothione synthetase of L. infantum (LiTryS), sequence (A4I2Z3 entry or part of it): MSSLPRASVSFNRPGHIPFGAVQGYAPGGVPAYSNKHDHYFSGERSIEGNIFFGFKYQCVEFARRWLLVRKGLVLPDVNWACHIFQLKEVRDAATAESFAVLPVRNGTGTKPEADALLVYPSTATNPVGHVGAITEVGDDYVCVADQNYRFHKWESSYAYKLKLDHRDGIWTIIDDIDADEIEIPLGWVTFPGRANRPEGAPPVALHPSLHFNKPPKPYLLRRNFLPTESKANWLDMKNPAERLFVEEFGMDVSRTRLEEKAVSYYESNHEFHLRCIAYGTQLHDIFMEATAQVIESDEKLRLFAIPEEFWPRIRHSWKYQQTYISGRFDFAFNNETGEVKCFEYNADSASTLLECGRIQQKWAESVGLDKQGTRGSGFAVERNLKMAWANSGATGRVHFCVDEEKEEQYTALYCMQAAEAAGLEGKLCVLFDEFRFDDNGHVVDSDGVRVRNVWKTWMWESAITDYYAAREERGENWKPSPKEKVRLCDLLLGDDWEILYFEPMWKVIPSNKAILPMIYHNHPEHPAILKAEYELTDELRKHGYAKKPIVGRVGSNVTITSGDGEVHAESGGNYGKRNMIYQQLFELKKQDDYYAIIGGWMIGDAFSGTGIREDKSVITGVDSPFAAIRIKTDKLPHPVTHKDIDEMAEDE

SMILES | activity at 30 µM [1] [%] | viability at 20 µM [2] [%]
CC(C)(C)OC(=O)N1CCN(C(=O)CN2C(=O)CCCc3ccccc32)CC1 [2d, tert-Butyl 4-[2-(2-oxo-2,3,4,5-tetrahydro-1H-benzo[b]azepin-1-yl)acetyl]piperazine-1-carboxylate] | 108 ± 14.6 | –
NCCCCNC(=O)CN1C(=O)CCCc2ccccc21 [2s, N-(4-Aminobutyl)-2-(2-oxo-2,3,4,5-tetrahydro-1H-benzo[b]azepin-1-yl)acetamide hydrochloride] | 104 ± 5.3 | –
CO/N=C1\CCC(=O)N(CC(=O)NCCN2CCN(C(=O)OC(C)(C)C)CC2)c2ccccc21 [5b, tert-Butyl (E/Z)-4-(2-{2-[5-(methoxyimino)-2-oxo-2,3,4,5-tetrahydro-1H-benzo[b]azepin-1-yl]acetamido}ethyl)piperazine-1-carboxylate] | 97.8 ± 13.3 | 93 ± 9.3
CC(C)(C)OC(=O)NCCCCNC(=O)CN1C(=O)CCCc2ccccc21 [2f, tert-Butyl {4-[2-(2-oxo-2,3,4,5-tetrahydro-1H-benzo[b]azepin-1-yl)acetamido]butyl}carbamate] | 83.6 ± 8.7 | –
O=C(CN1C(=O)CCCc2ccccc21)N1CCOCC1 [2h, 1-(2-Morpholino-2-oxoethyl)-1,3,4,5-tetrahydro-2H-benzo[b]azepin-2-one] | 92.7 ± 9.2 | –
NCCNC(=O)CN1C(=O)CCCc2ccccc21 [2p, N-(2-Aminoethyl)-2-(2-oxo-2,3,4,5-tetrahydro-1H-benzo[b]azepin-1-yl)acetamide hydrochloride] | 82.4 ± 9.5 | –
CNCCNC(=O)CN1C(=O)CCCc2ccccc21 [2r, N-[2-(Methylamino)ethyl]-2-(2-oxo-2,3,4,5-tetrahydro-1H-benzo[b]azepin-1-yl)acetamide hydrochloride] | 88.9 ± 10.4 | –
CN1CCN(CCNC(=O)CN2C(=O)CCCc3ccccc32)CC1 [2u, N-[2-(4-Methylpiperazin-1-yl)ethyl]-2-(2-oxo-2,3,4,5-tetrahydro-1H-benzo[b]azepin-1-yl)acetamide dihydrochloride] | 106 ± 9.8 | 85 ± 10.6
O=C(CN1C(=O)CCCc2ccccc21)N1CCCCC1 [2i, 1-[2-Oxo-2-(piperidin-1-yl)ethyl]-1,3,4,5-tetrahydro-2H-benzo[b]azepin-2-one] | 89.4 ± 4.6 | –
CC(C)(C)OC(=O)NCCNC(=O)CN1C(=O)CCCc2ccccc21 [2c, tert-Butyl {2-[2-(2-oxo-2,3,4,5-tetrahydro-1H-benzo[b]azepin-1-yl)acetamido]ethyl}carbamate] | 96.7 ± 7.5 | –
CN(CCNC(=O)CN1C(=O)Cc2ccccc2-c2ccccc21)C(=O)OC(C)(C)C [4c, tert-Butyl N-methyl-{2-[2-(6-oxo-6,7-dihydro-5H-dibenzo[b,d]azepin-5-yl)acetamido]ethyl}carbamate] | 87.6 ± 4.6 | –
CN1CCN(C(=O)CN2C(=O)CCCc3ccccc32)CC1 [2v, 1-[2-(4-Methylpiperazin-1-yl)-2-oxoethyl]-1,3,4,5-tetrahydro-2H-benzo[b]azepin-2-one hydrochloride] | 98.2 ± 13.7 | 72.4 ± 0.3
CNCCNC(=O)CN1C(=O)C(C)(C)CCc2ccccc21 [3e, 2-(3,3-Dimethyl-2-oxo-2,3,4,5-tetrahydro-1H-benzo[b]azepin-1-yl)-N-[2-(methylamino)ethyl]acetamide hydrochloride] | 99.8 ± 7.1 | –
CC(C)(C)OC(=O)N1CCN(CCNC(=O)CN2C(=O)CCCc3ccccc32)CC1 [2b, tert-Butyl 4-{2-[2-(2-oxo-2,3,4,5-tetrahydro-1H-benzo[b]azepin-1-yl)acetamido]ethyl}piperazine-1-carboxylate] | 91.4 ± 3.1 | 89.5 ± 9.9
CN(CCNC(=O)CN1C(=O)CCCc2ccccc21)C(=O)OC(C)(C)C [2e, tert-Butyl methyl-{2-[2-(2-oxo-2,3,4,5-tetrahydro-1H-benzo[b]azepin-1-yl)acetamido]ethyl}carbamate] | 92.5 ± 37.2 | –
CC(C)(C)OC(=O)N1CCN(CCNC(=O)CN2C(=O)C(C)(C)CCc3ccccc32)CC1 [3b, tert-Butyl 4-{2-[2-(3,3-dimethyl-2-oxo-2,3,4,5-tetrahydro-1H-benzo[b]azepin-1-yl)acetamido]ethyl}piperazine-1-carboxylate] | 107 ± 12.6 | 94.8 ± 2.5
CO/N=C1\CCC(=O)N(CC(=O)OC(C)(C)C)c2ccccc21 [compound 21, tert-Butyl (E/Z)-2-(5-(methoxyimino)-2-oxo-2,3,4,5-tetrahydro-1H-benzo[b]azepin-1-yl)acetate] | 92.4 ± 10.3 | –
CCN(CC)C(=O)CN1C(=O)CCCc2ccccc21 [2k, N,N-Diethyl-2-(2-oxo-2,3,4,5-tetrahydro-1H-benzo[b]azepin-1-yl)acetamide] | 92.9 ± 6.4 | –
CO/N=C1\CCC(=O)N(CC(=O)O)c2ccccc21 [compound 22, (E/Z)-2-(5-(Methoxyimino)-2-oxo-2,3,4,5-tetrahydro-1H-benzo[b]azepin-1-yl)acetic acid] | 96.7 ± 5.2 | –
CN(CCNC(=O)CN1C(=O)C(C)(C)CCc2ccccc21)C(=O)OC(C)(C)C [3c, tert-Butyl {2-[2-(3,3-dimethyl-2-oxo-2,3,4,5-tetrahydro-1H-benzo[b]azepin-1-yl)acetamido]ethyl}(methyl)carbamate] | 104 ± 7.1 | –
O=C(O)CN1C(=O)Cc2ccccc2-c2ccccc21 [compound 19, 2-(6-Oxo-6,7-dihydro-5H-dibenzo[b,d]azepin-5-yl)acetic acid] | 97.8 ± 6.1 | –
CC(C)(C)OC(=O)NC1CCN(C(=O)CN2C(=O)CCCc3ccccc32)CC1 [2g, tert-Butyl {1-[2-(2-oxo-2,3,4,5-tetrahydro-1H-benzo[b]azepin-1-yl)acetyl]piperidine-4-yl}carbamate] | 93.3 ± 6.1 | –
O=C(CN1C(=O)CCCc2ccccc21)NCCN1CCOCC1 [2t, N-(2-Morpholinoethyl)-2-(2-oxo-2,3,4,5-tetrahydro-1H-benzo[b]azepin-1-yl)acetamide hydrochloride] | 91 ± 3.9 | 71.2 ± 1.5
CO/N=C1\CCC(=O)Nc2ccccc21 [compound 20, (E)-5-methoxyimino-1,3,4,5-tetrahydro-2H-benzo[b]azepin-2-one] | 102 ± 2.4 | –
